Molecular target: T1, rhJAK3 (Homo sapiens, UniProt P52333)
T1 construct: recombinant purified GST-tagged catalytic domain for each enzyme; purchased Invitrogen PV3855
Assay: JAK Biochemical HTRF Assay (JAK3)
Conditions: recombinant purified GST-tagged catalytic domain, HTRF format, [ATP] 1.7 μM; read-out: JAK3 IC50
Experimental: JAK Biochemical HTRF Assay Protocol
The ability of compounds to inhibit the activity of JAK1, JAK2, JAK3, and TYK2 was measured using a recombinant purified GST-tagged catalytic domain for each enzyme (Invitrogen JAK1 #PV4774, JAK2 #PV4210, JAK3 #PV3855, TYK2 #PV4790) in an HTRF format biochemical assay. The reactions employed a common peptide substrate, LCB-EQEDEPEGDYFEWLW-NH2. The basic assay protocol is as follows: First, […] of diluted compounds in DMSO were dispensed into the wells of a dry 384-well Black plate (Greiner #781076) using a Labcyte Echo 555 acoustic dispenser. Subsequent reagent additions employed a Thermo Multidrop Combi nL. Next, 10 μL of 2× enzyme and 2× substrate in 1× assay buffer (Invitrogen kinase buffer #PV3189, 2 mM DTT, 0.05% BSA) were added to the wells and preincubated for 30 min at room temperature to allow compound binding to equilibrate. After equilibration, 10 μl, of 2×ATP in 1× assay buffer was added to initiate the kinase reaction and the plates were incubated at room temperature for 120 min. At the end of the incubation, 20 μL of 2× stop buffer containing streptavidin-Dylight (Thermo #21845) and Eu-tagged pY20 antibody (Perkin Elmer #AD0067) was added to quench the reaction. Plates were further incubated 60 min at room temperature with shaking and then read on a Perkin Elmer Envision (λex=337 nm, λem=665 and 615 nm, TRF delay time=20 μs). HTRF signal=10,000*665 nm reading/615 nm reading. After normalization to untreated controls, the percent inhibition of the HTRF signal at each compound concentration was calculated. The plot of percent inhibition vs. the log of compound concentration was fit with a 4-parameter dose response equation to calculate IC50 values.

T1 sequence (P52333 822-1111 limits assumed): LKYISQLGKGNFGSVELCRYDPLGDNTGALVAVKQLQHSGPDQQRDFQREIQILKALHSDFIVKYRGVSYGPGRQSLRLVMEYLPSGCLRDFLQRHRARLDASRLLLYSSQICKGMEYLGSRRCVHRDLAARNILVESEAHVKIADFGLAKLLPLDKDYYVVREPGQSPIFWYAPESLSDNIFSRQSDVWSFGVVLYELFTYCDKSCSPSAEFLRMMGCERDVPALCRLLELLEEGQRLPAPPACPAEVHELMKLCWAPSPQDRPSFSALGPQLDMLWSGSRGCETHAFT

IC50 [µM] | Compound
≤ 0.001 | C[C@@H](Nc1cncc(-c2c[nH]c3ncc(-c4ccc(C(O)C(F)(F)F)cc4)cc23)n1)C(=O)NCC(F)(F)F (stereo partly drawn) [Example 15-3, N-(2,2,2-trifluoroethyl)-N^2-(6-{5-[4-(2,2,2-trifluoro-1-hydroxyethyl)phenyl]-1H-pyrrolo[2,3-b]pyridin-3-yl}pyrazin-2-yl)-D-alaninamide]
≤ 0.001 | CC(C)(Nc1cncc(-c2c[nH]c3ncc(F)cc23)n1)C(=O)NCC(F)(F)F [Example 16-5, N^2-[6-(5-fluoro-1H-pyrrolo[2,3-b]pyridin-3-yl)pyrazin-2-yl]-2-methyl-N-(2,2,2-trifluoroethyl)alaninamide]
≤ 0.001 | C[C@@H](Nc1cncc(-c2c[nH]c3ncc(-c4ccc(N5CCCC5)cc4)cc23)n1)C(=O)NCC(F)(F)F [Example 15-17, N^2-{6-[5-(4-pyrrolidin-1-ylphenyl)-1H-pyrrolo[2,3-b]pyridin-3-yl]pyrazin-2-yl}-N-(2,2,2-trifluoroethyl)-D-alaninamide]
≤ 0.001 | CC(C)(Nc1cncc(-c2c[nH]c3ncc(C4CC4)cc23)n1)C(=O)NCC(F)(F)F [Example 15-21, N2-[6-(5-cyclopropyl-1H-pyrrolo[2,3-b]pyridin-3-yl)pyrazin-2-yl]-2-methyl-N-(2,2,2-trifluoroethyl)alaninamide]
≤ 0.001 | CC(C)[C@@H](Nc1cncc(-c2c[nH]c3ncc(C#N)cc23)n1)C(=O)NCC(F)(F)F [Example 16-2, N^2-[6-(5-cyano-1H-pyrrolo[2,3-b]pyridin-3-yl)pyrazin-2-yl]-N-(2,2,2-trifluoroethyl)-D-valinamide]
0.001 to 0.01 | C[C@@H](Nc1cncc(-c2c[nH]c3ncc(-c4ccccc4CN(C)C)cc23)n1)C(=O)NCC(F)(F)F [Example 15-13, N^2-[6-(5-{2-[(dimethylamino)methyl]-phenyl}-1H-pyrrolo(2,3-b]pyridin-3-yl)pyrazin-2-yl]-N-(2,2,2-trifluoroethyl)-D-alaninamide]
≤ 0.001 | C[C@@H](Nc1cncc(-c2c[nH]c3ncc(-c4ccc(CC#N)nc4)cc23)n1)C(=O)NCC(F)(F)F [Example 15-2, N^2-(6-{5-[6-(cyanomethyl)pyridin-3-yl]-1H-pyrrolo[2,3-b]pyridin-3-yl}-pyrazin-2-yl)-N-(2,2,2-trifluoroethyl)-D-alaninamide]
≤ 0.001 | C[C@@H](Nc1cncc(-c2c[nH]c3ncc(-c4cnn5c4CCC5)cc23)n1)C(=O)NCC(F)(F)F [Example 15-9, N^2-{6-[5-(5,6-dihydro-4H-pyrrolo[1,2-b]pyrazol-3-yl)-1H-pyrrolo[2,3-b]-pyridin-3-yl]pyrazin-2-yl}-N-(2,2,2-trifluoroethyl)-D-alaninamide]
≤ 0.001 | COCC#Cc1cnc2[nH]cc(-c3cncc(N[C@H](C)C(=O)NCC(F)(F)F)n3)c2c1 [Example 15-7, N^2-{6-[5-(3-methoxyprop-1-yn-1-yl)-1H-pyrrolo[2,3-b]pyridin-3-yl]pyrazin-2-yl}-N-(2,2,2-trifluoroethyl)-D-alaninamide]
≤ 0.001 | C[C@@H](Nc1cncc(-c2c[nH]c3ncc(-c4cccc(N5CCCC5)c4)cc23)n1)C(=O)NCC(F)(F)F [Example 15-1, N^2-{6-[5-(3-pyrrolidin-1-ylphenyl)-1H-pyrrolo[2,3-b]pyridin-3-yl]pyrazin-2-yl}-N-(2,2,2-trifluoroethyl)-D-alaninamide]

Same assay, conditions: recombinant purified GST-tagged catalytic domain, HTRF format, [ATP] 1.7 μM; read-out: rhJAK3 IC50

IC50 [µM] | Compound
0.01 to 0.1 | C[C@@H](Nc1cncc(-c2c[nH]c3ncc(Cl)cc23)n1)C(=O)NC1CCC1 [Example 2-17, N^2-[6-(5-chloro-1H-pyrrolo[2,3-b]-pyridin-3-yl)pyrazin-2-yl]-N-cyclo-butyl-D-alaninamide]
0.1 to 1 | O=C(NCC(F)(F)F)c1cncc(-c2c[nH]c3ncc(Cl)cc23)n1 [Example 7, 6-(5-chloro-1H-pyrrolo[2,3-b]pyridin-3-yl)-N-(2,2,2-trifluoroethyl)pyrazine-2-carboxamide]
≤ 0.001 | C[C@@H](Nc1cncc(-c2c[nH]c3ncc(C4CC4)cc23)n1)C(=O)NCC(F)(F)F [Example 13, N^2-[6-(5-cyclopropyl-1H-pyrrolo[2,3-b]pyridin-3-yl)pyrazin-2-yl]-N-(2,2,2-trifluoroethyl)-D-alaninamide]
≤ 0.001 | CC(C)(Nc1cncc(-c2c[nH]c3ncc(Cl)cc23)n1)C(=O)NCC(F)(F)F [Example 1-14, N^2-[6-(5-chloro-1H-pyrrolo[2,3-b]pyridin-3-yl)pyrazin-2-yl]-2-methyl-N-(2,2,2-trifluoroethyl)alaninamide]
0.01 to 0.1 | C[C@H](Nc1cncc(-c2c[nH]c3ncc(Cl)cc23)n1)C(=O)NCC#N [Example 2-1, N^2-[6-(5-chloro-1H-pyrrolo[2,3-b]-pyridin-3-yl)pyrazin-2-yl]-N-(cyanomethyl)-L-alaninamide]
0.01 to 0.1 | O=C(Cn1ccc2ncc(-c3c[nH]c4ncc(Cl)cc34)nc21)NCC(F)(F)F [Example 5, 2-[3-(5-Chloro-1H-pyrrolo[2,3-b]pyridin-3-yl)-5H-pyrrolo[2,3-b]pyrazin-5-yl]-N-(2,2,2-trifluoroethyl)acetamide]
≤ 0.001 | CC(C)[C@@H](Nc1cncc(-c2c[nH]c3ncc(C(N)=O)cc23)n1)C(=O)NCC(F)(F)F [16 Step 8]
0.1 to 1 | C[C@H](Nc1cncc(-c2c[nH]c3ncc(Cl)cc23)n1)C(=O)N1CC(F)(F)C(F)(F)C1 [Example 2-4, 6-(5-chloro-1H-pyrrolo[2,3-b]-pyridin-3-yl)-N-[(1S)-1-methyl-2-oxo-2-(3,3,4,4-tetrafluoro-pyrrolidin-1-yl)ethyl]pyrazin-2-amine]
0.1 to 1 | O=C(NCC(F)(F)F)[C@H]1CNCCN1C(=O)c1cncc(-c2c[nH]c3ncc(Cl)cc23)n1 [Example 7-1, (2R)-1-{[6-(5-chloro-1H-pyrrolo[2,3-b]pyridin-3-yl)-pyrazin-2-yl]carbonyl}-N-(2,2,2-trifluoroethyl)piperazine-2-carboxamide]
0.001 to 0.01 | O=C(NCC(F)(F)F)[C@H]1CC[C@@H](Nc2cncc(-c3c[nH]c4ncc(Cl)cc34)n2)C1 [Example 1-2, (1S,3R)-3-{[6-(5-chloro-1H-pyrrolo[2,3-b]pyridin-3-yl)-pyrazin-2-yl]amino}-N-(2,2,2-trifluoroethyl)cyclopentane-carboxamide]
0.01 to 0.1 | CC(Cc1cncc(-c2c[nH]c3ncc(Cl)cc23)n1)C(=O)NCC(F)(F)F (centres unmarked) [Example 11, 3-[6-(5-chloro-1H-pyrrolo[2,3-b]pyridin-3-yl)pyrazin-2-yl]-2-methyl-N-(2,2,2-trifluoroethyl)-propanamide]
0.01 to 0.1 | O=C(NCC(F)(F)F)[C@H]1CC[C@H](Nc2cncc(-c3c[nH]c4ncc(Cl)cc34)n2)C1 [Example 1-4, (1S,3S)-3-{[6-(5-chloro-1H-pyrrolo[2,3-b]pyridin-3-yl)-pyrazin-2-yl]amino}-N-(2,2,2-trifluoroethyl)cyclopentane-carboxamide]
0.001 to 0.01 | O=C(NCC(F)(F)F)[C@@H]1[C@@H](O)CN1c1cncc(-c2c[nH]c3ncc(Cl)cc23)n1 [Example 3, (2S,3S)-1-[6-(5-Chloro-1H-pyrrolo[2,3-b]pyridin-3-yl)pyrazin-2-yl]-3-hydroxy-N-(2,2,2-trifluoroethyl)azetidine-2-carboxamide]
0.001 to 0.01 | CS(=O)(=O)N1CCN(c2cncc(-c3c[nH]c4ncc(Cl)cc34)n2)[C@@H](C(=O)NCC(F)(F)F)C1 [Example 4, (2R)-1-[6-(5-Chloro-1H-pyrrolo[2,3-b]pyridin-3-yl)pyrazin-2-yl]-4-methylsulfonyl-N-(2,2,2-trifluoroethyl)piperazine-2-carboxamide]
0.01 to 0.1 | C/C(=C\c1cncc(-c2c[nH]c3ncc(Cl)cc23)n1)C(=O)NCC(F)(F)F [Example 9, (2E)-3-[6-(5-chloro-1H-pyrrolo[2,3-b]pyridin-3-yl)pyrazin-2-yl]-2-methyl-N-(2,2,2-trifluoro-ethyl)prop-2-enamide]
0.01 to 0.1 | CC(C)(C)C(=O)N1CCN(c2cncc(-c3c[nH]c4ncc(Cl)cc34)n2)[C@@H](C(=O)NCC(F)(F)F)C1 [Example 4-3, (2R)-1-[6-(5-chloro-1H-pyrrolo[2,3-b]-pyridin-3-yl)pyrazin-2-yl]-4-(2,2-dimethylpropanoyl)-N-(2,2,2-trifluoro-ethyl)piperazine-2-carboxamide]
0.1 to 1 | O=C(Cc1cncc(-c2c[nH]c3ncc(Cl)cc23)n1)N1CCOCC1 [Example 8-1, 5-chloro-3-[6-(2-morpholin-4-yl-2-oxoethyl)pyrazin-2-yl]-1H-pyrrolo-[2,3-b]pyridine]
0.01 to 0.1 | COC(=O)c1ncc(N[C@@H](C)C(=O)NCC(F)(F)F)nc1-c1c[nH]c2ncc(Cl)cc12 [Example 1-16, methyl 3-(5-chloro-1H-pyrrolo[2,3-b]pyridin-3-yl)-5-({(1S)-1-methyl-2-oxo-2-[(2,2,2-trifluoroethyl)amino]ethyl}amino)-pyrazine-2-carboxylate]

Compound | IC50 [µM]
(2R)-1-[6-(5-chloro-1H-pyrrolo[2,3-b]- pyridin-3-yl)pyrazin-2-yl]-N-(2,2,2- trifluoroethyl)piperazine-2-carboxamide [Example 4-1] | 0.01 to 0.1
